For experiment [1], the system named is IB3-1. Briefly: Reduction of NF-kappaB binding to DNA in cystic fibrosis IB3-1 cells at 8 ug after 24 hrs. Format: functional.
For experiment [2], the species on record is Homo sapiens. The experiment is described as follows: (§1) Reduction of Sp1 binding to DNA in cystic fibrosis 2CFSMEo cells at 8 ug after 24 hrs. Format: functional.
The species named for experiment [3] is Homo sapiens. Briefly: (§2) Reduction of NF-kappaB binding to DNA in cystic fibrosis 2CFSMEo cells at 8 ug after 24 hrs. Format: functional.
The species named for experiment [4] is Homo sapiens. Briefly: (§3) Reduction of NF-kappaB binding to DNA in cystic fibrosis 16HBE14o-AS3 cells at 8 ug after 24 hrs. Format: functional.
Experiment [5] deals with IB3-1. Briefly: Reduction of Sp1 binding to DNA in cystic fibrosis IB3-1 cells at 8 ug after 24 hrs. It counts as functional.
Experiment [6] is filed under the species Homo sapiens. The experiment is described as follows: (§4) Reduction of Sp1 binding to DNA in cystic fibrosis 16HBE14o-AS3 cells at 8 ug after 24 hrs. It counts as functional.
Experiment [7] is described as follows: Cell viability of C38 cells at 8 ug/ml after 24 hrs by trypan blue exclusion test.
Experiment [8] can be described thus: as §1. Format: functional, Homo sapiens. Details: scale not given: the % may be the effect or the level left.
A short description of experiment [9]: Cell viability of 16HBE14o-AS3 cells at 8 ug/ml after 24 hrs by trypan blue exclusion test. Format: functional. Conditions: Homo sapiens.
Experiment [10] can be described thus: as §2. It counts as functional, Homo sapiens. Details: scale not given: the % may be the effect or the level left.
A short description of experiment [11]: Cell viability of 16HBE14o-S1 cells at 16 ug/ml after 24 hrs by trypan blue exclusion test. Conditions: Homo sapiens. Format: functional, cell-based.
Experiment [12] can be described thus: as §3. It counts as functional, Homo sapiens. Details: scale not given: the % may be the effect or the level left.
Experiment [13] is described as follows: Cell viability of 16HBE14o-S1 cells at 8 ug/ml after 24 hrs by trypan blue exclusion test. Conditions: Homo sapiens. It counts as functional, cell-based.
Experiment [14] has as its system IB3-1. The experiment is described as follows: Reduction of TNFalpha protein level in cystic fibrosis IB3-1 cells at 8 ug after 24 hrs by ELISA relative to control. Format: functional, Homo sapiens. Details: scale not given: the % may be the effect or the level left. In general terms: ELISA stands for enzyme-linked immunosorbent assay.
Experiment [15] concerns IB3-1. The experiment is described as follows: Reduction of TNFalpha mRNA level in cystic fibrosis IB3-1 cells at 8 ug after 24 hrs relative to control. Format: functional, Homo sapiens. Further details: scale not given: the % may be the effect or the level left.
Experiment [16] is described as follows: Reduction of TNFalpha mRNA level in cystic fibrosis 16HBE14o-AS3 cells at 8 ug after 24 hrs relative to control. Format: functional, Homo sapiens. Details: scale not given: the % may be the effect or the level left.
Experiment [17] can be described thus: Reduction of TNFalpha mRNA level in cystic fibrosis 2CFSMEo cells at 8 ug after 24 hrs relative to control. Format: functional, Homo sapiens. Details: scale not given: the % may be the effect or the level left.
Experiment [18] is described as follows: Cell viability of IB3-1 cells at 16 ug/ml after 24 hrs by trypan blue exclusion test. It counts as functional, cell-based. Conditions: Homo sapiens.
The nature of experiment [19]: Cell viability of IB3-1 cells at 8 ug/ml after 24 hrs by trypan blue exclusion test. It counts as functional, cell-based. Conditions: Homo sapiens.
Experiment [20] is described as follows: Cell viability of 16HBE14o-AS3 cells at 16 ug/ml after 24 hrs by trypan blue exclusion test. It counts as functional. Conditions: Homo sapiens.
Experiment [21] in a line: Reduction of TNFalpha protein level in cystic fibrosis 16HBE14oAS3 cells at 8 ug after 24 hrs by ELISA relative to control. Format: functional, Homo sapiens. Details: scale not given: the % may be the effect or the level left.
A short description of experiment [22]: Cell viability of 2CFSMEo cells at 16 ug/ml after 24 hrs by trypan blue exclusion test. Format: functional. Conditions: Homo sapiens.
Experiment [23] in a line: Cell viability of C38 cells at 16 ug/ml after 24 hrs by trypan blue exclusion test.
Experiment [24] can be described thus: Cell viability of 2CFSMEo cells at 8 ug/ml after 24 hrs by trypan blue exclusion test. It counts as functional. Conditions: Homo sapiens.
The nature of experiment [25]: Reduction of TNFalpha protein level in cystic fibrosis 2CFSMEo cells at 8 ug after 24 hrs by ELISA relative to control. Format: functional, Homo sapiens. Further details: scale not given: the % may be the effect or the level left.
The nature of experiment [26]: as §4. It counts as functional, Homo sapiens. Details: scale not given: the % may be the effect or the level left.

Two compounds from ChEMBL document CHEMBL1142091, “Azithromycin selectively reduces tumor necrosis factor alpha levels in cystic fibrosis airway epithelial cells” (2007) can be followed below.

Activity calls are given as the source filed them. The calls are words filed in the database; no cut-off is given here.

For the compound `CO[C@@H]1[C@@H](O[C@@H]2O[C@H](C)[C@@H](O[C@H]3C[C@@](C)(O)[C@@H](OC(=O)CC(C)C)[C@H](C)O3)[C@H](N(C)C)[C@H]2O)[C@@H](CC=O)C[C@@H](C)[C@@H](O)/C=C/C=C/C[C@@H](C)OC(=O)C[C@H]1OC(C)=O`, the outcome in the experiment on IB3-1 [1] (Homo sapiens), in the experiment filed under Homo sapiens [2], in the experiment listed under Homo sapiens [3], in the experiment filed under Homo sapiens [4], in the experiment with IB3-1 [5] (Homo sapiens) and in the experiment filed under Homo sapiens [6] was inactive.
In the case of `CC[C@H]1OC(=O)[C@H](C)[C@@H](O[C@H]2C[C@@](C)(OC)[C@@H](O)[C@H](C)O2)[C@H](C)[C@@H](O[C@@H]2O[C@H](C)C[C@H](N(C)C)[C@H]2O)[C@](C)(O)C[C@@H](C)CN(C)[C@H](C)[C@@H](O)[C@]1(C)O` [AZITHROMYCIN], the Activity in the experiment with IB3-1 [1] is 40%; in experiment [7], more than 95%; in experiment [8], 65%; in experiment [9], more than 95%; in experiment [10] it was 45%; in [11] it was less than 95%. The Activity in experiment [12] is 45%; in [13] it was more than 95%; in the experiment with IB3-1 [14], 45%; in the experiment with IB3-1 [15] it was 35%; in experiment [16], 25%; in experiment [17], 30%. Further, the Activity was less than 95% in experiment [18]; more than 95% in experiment [19]; less than 95% in experiment [20]; 50% in experiment [21]; less than 95% in experiment [22]; less than 95% in experiment [23]. Moreover, the Activity in [24] is more than 95%; in the experiment on IB3-1 [5], 60%; in experiment [25], 40%; in experiment [26] it was 64%.
